Reference: patent US20180353462A1, “[…] AGENTS […] FLAVONOID DERIVATIVES TARGETING KINASES, SIRTUINS AND ONCOGENIC AGENTS FOR THE TREATMENT OF CANCERS” (priority 2015, published 2018)

Tests used:
U87 (Glioma) = test: WST-1 anticancer cell proliferation assay, U87; type: cell-based; conditions: 72 hours
Procedure: Bioactivity of the above-described compounds has been verified by an anticancer cell proliferation assay using the WST-1 (4-[3-(4-iodophenyl)-2-(4-nitrophenyl)-2H-5-tetrazolio]-1, 3-benzene disulfonate) colorimetric assay by Roche Life Sciences®. Anticancer activity was tested against several standard cancer cell lines including brain, breast, Kaposi sarcoma, leukemia, lung, melanoma, tenosynovial giant cell tumor, ovarian, pancreatic, colon and prostate cancer. Cells were trypsinized and plated into 96 well plates in 50 μl of media and incubated overnight. The next day approximately 18 hours after plating, 50 μl of media containing the required flavonoid-based pharmaceutical composition was added per well. Cells were plated at a density so that 72 hours post drug addition, the cells will be in log phase (500)-2000 cells/well). The compounds and extracts were solubilized in Dimethyl sulfoxide (DMSO). The cells are allowed to proliferate for 72 hours 37° C. in humidified atmosphere of 5% CO2. The experiment is terminated using WST-1 (Roche®) 10 μl per well and absorbance is read at 450 nm %690 nm. The effect of drugs on growth is assessed as percent of cell viability. The IC50 values were determined from the extract dose versus control growth curves using Graphpad Prism® software. All experiments were carried out in duplicate and the mean results determined.

DYRK1/DYRK1A = molecular target: T1, DYRK1/DYRK1A (Homo sapiens, UniProt Q13627); test: Kinase competition binding assay, DYRK1/DYRK1A; conditions: Table 1 kinase panel
T1 construct: made in house
Procedure: (§1) Cannabis flavonoids and their analogs were subjected to kinase inhibition assay. The compounds were first screened at a single concentration of 10 μM in the primary assay. […]. To determine the kd or IC50 values, competition binding assays were established, authenticated and executed as described previously. Fabian et al., “A Small Molecule-Kinase Interaction Map For Clinical Kinase Inhibitors.”, Nat Biotechnol, 23(3):329-36, Epub (2005). See also, Karaman et al., “A Quantitative Analysis Of Kinase Inhibitor Selectivity”, Nat. Biotechnol. […] For most assays, kinases were fused to T7 phage strains (Fabian, supra) and for the other assays, kinases were produced in HEK-293 cells after which they were tagged with DNA for quantitative PCR detection. In general, full-length constructs were used for small, single domain kinases, and catalytic domain constructs for large multi-domain kinases. The binding assays utilized streptavidin-coated magnetic beads treated with biotinylated small molecule ligands for 30 minutes at room temperature which generated affinity resins for the kinase assays. The liganded beads were blocked with excess biotin and washed with blocking buffer (SeaBlock (Pierce), 1% BSA, 0.05% Tween 20, 1 mM DTT) to remove unbound ligand and to reduce non-specific phage binding. […] Test compounds were prepared as 40× stocks in 100% DMSO and diluted directly into the assay (Final DMSO concentration=2.5%). All reactions were performed in polypropylene 384-well plates in a final volume of 0.04 ml. […] The beads were then re-suspended in elution buffer (1×PBS, 0.05% Tween 20, 0.5 μM non-biotinylated affinity ligand) and incubated at room temperature with shaking for 30 minutes. The kinase concentration in the eluates was measured by quantitative PCR. An illustration of the kinase interaction process is presented below. Kd/IC50 values were determined using a standard dose response curve using the hill equation. Curves were fitted using a non-linear least square fit with the Levenberg-Marquardt algorithm.
(§2) The compound(s) were screened at 10 μM and results for primary screen binding interactions are reported as ‘% Ctrl’, where lower numbers indicate stronger hits in the matrix.

EPHB6 = molecular target: T2, EPHB6 (Homo sapiens, UniProt O15197); test: Kinase competition binding assay, EPHB6; conditions: Table 1 kinase panel
T2 construct: made in house
T2 sequence (O15197 32-1021): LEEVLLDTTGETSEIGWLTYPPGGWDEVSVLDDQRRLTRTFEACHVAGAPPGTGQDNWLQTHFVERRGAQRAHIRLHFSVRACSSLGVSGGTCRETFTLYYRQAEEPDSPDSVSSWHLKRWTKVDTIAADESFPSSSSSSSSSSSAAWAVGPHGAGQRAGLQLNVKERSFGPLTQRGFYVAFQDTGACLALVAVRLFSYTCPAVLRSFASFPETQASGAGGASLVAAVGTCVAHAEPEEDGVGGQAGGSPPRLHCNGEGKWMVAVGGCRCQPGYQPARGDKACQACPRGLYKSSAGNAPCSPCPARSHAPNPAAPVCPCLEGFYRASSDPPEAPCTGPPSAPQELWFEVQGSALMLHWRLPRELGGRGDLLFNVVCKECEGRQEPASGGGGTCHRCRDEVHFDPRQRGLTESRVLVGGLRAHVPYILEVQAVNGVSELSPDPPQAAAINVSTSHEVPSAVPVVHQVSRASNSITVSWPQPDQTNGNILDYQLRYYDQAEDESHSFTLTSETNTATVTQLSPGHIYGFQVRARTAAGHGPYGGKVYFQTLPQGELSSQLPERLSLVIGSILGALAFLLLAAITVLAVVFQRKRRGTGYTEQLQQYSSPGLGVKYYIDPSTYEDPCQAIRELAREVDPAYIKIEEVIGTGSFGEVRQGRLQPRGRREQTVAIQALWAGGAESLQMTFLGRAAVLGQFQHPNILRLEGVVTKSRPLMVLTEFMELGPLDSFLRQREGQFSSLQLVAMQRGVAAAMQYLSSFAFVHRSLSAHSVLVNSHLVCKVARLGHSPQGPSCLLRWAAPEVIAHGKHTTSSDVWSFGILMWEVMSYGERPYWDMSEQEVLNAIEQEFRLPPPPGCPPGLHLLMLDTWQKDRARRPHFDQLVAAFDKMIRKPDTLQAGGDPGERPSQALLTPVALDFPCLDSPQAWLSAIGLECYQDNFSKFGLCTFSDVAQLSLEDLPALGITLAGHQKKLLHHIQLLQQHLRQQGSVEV
Procedure: as §1, §2

SIRT-2 = molecular target: T3, SIRT-2 (Homo sapiens, UniProt Q8IXJ6); test: Inhibition of sirtuins, SIRT-2; type: biochemical; conditions: Table 3 SIRT
T3 sequence (Q8IXJ6 1-389): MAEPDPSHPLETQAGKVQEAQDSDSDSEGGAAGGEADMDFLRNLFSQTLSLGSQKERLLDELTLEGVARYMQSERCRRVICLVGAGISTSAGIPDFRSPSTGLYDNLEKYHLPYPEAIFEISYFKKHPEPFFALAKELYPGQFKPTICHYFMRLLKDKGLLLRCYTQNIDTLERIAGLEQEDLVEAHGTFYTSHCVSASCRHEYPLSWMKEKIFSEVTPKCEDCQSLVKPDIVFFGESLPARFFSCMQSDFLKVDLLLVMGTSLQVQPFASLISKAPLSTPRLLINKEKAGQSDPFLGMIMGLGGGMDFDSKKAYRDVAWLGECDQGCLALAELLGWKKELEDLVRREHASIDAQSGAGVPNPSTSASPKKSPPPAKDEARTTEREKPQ
Excerpt: Inhibition of Sirtuins, Matrix Metalloproteinase, Bromodomains was Also Confirmed Using Standard Protocols and the Results are Present in Table 2.

PDGFRa = molecular target: T4, PDGFRa (Homo sapiens, UniProt P16234); test: Kinase competition binding assay, PDGFRa; conditions: Table 1 kinase panel
T4 construct: catalytic domain constructs for large multi-domain kinases; T7 phage fusion (most assays) or DNA tag for qPCR (HEK-293-made kinases); made in house
T4 sequence (P16234 593-954 limits assumed): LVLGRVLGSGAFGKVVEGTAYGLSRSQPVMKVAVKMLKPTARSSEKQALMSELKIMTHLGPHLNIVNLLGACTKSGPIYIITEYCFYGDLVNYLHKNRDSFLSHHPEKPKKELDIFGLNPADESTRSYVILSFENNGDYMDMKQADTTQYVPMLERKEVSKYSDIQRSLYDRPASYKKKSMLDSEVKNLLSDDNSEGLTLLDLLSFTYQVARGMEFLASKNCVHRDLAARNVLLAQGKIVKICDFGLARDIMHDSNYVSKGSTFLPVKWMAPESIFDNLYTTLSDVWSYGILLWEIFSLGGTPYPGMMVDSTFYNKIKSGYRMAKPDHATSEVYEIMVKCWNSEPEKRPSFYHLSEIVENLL
Procedure: Cannabis flavonoids and their analogs were subjected to kinase inhibition assay. The compounds were first screened at a single concentration of 10 μM in the primary assay. […]. To determine the kd or IC50 values, competition binding assays were established, authenticated and executed as described previously. Fabian et al., “A Small Molecule-Kinase Interaction Map For Clinical Kinase Inhibitors.”, Nat Biotechnol, 23(3):329-36, Epub (2005). See also, Karaman et al., “A Quantitative Analysis Of Kinase Inhibitor Selectivity”, Nat. Biotechnol. […] For most assays, kinases were fused to T7 phage strains (Fabian, supra) and for the other assays, kinases were produced in HEK-293 cells after which they were tagged with DNA for quantitative PCR detection. In general, full-length constructs were used for small, single domain kinases, and catalytic domain constructs for large multi-domain kinases. The binding assays utilized streptavidin-coated magnetic beads treated with biotinylated small molecule ligands for 30 minutes at room temperature which generated affinity resins for the kinase assays. The liganded beads were blocked with excess biotin and washed with blocking buffer (SeaBlock (Pierce), 1% BSA, 0.05% Tween 20, 1 mM DTT) to remove unbound ligand and to reduce non-specific phage binding. […] Test compounds were prepared as 40× stocks in 100% DMSO and diluted directly into the assay (Final DMSO concentration=2.5%). All reactions were performed in polypropylene 384-well plates in a final volume of 0.04 ml. […] The beads were then re-suspended in elution buffer (1×PBS, 0.05% Tween 20, 0.5 μM non-biotinylated affinity ligand) and incubated at room temperature with shaking for 30 minutes. The kinase concentration in the eluates was measured by quantitative PCR. An illustration of the kinase interaction process is presented below. Kd/IC50 values were determined using a standard dose response curve using the hill equation. Curves were fitted using a non-linear least square fit with the Levenberg-Marquardt algorithm. […]

| Structure (SMILES) | IC50 (U87 (Glioma)) | IC50 (DYRK1/DYRK1A) | IC50 (EPHB6) | IC50 (SIRT-2) | IC50 (PDGFRa) |
| --- | --- | --- | --- | --- | --- |
| COc1cc(-c2cc(=O)c3c(O)c(C/C=C(\C)CCC=C(C)C)c(O)cc3o2)ccc1O [FBL-03A] | 34 µM | > 20000 nM | > 20000 nM | 2.57 µM |  |
| COc1cc(-c2cc(=O)c3c(O)c(CC=C(C)C)c(O)cc3o2)ccc1O [FBL-03B] | 6.2 µM | < 1000 nM | > 1000 nM | 10.8 µM | 982 nM |
| COc1cc(-c2cc(=O)c3c(O)cc(O)c(C/C=C(\C)CCC=C(C)C)c3o2)ccc1O [FBL-03C] | 12.5 µM | 620 nM | 270 nM | 14 µM |  |
| COc1ccc(-c2cc(=O)c3c(O)c(C/C=C(\C)CCC=C(C)C)c(O)cc3o2)cc1OC [FBL-03D] |  | > 30000 nM | > 30000 nM | 2.38 µM | > 30000 nM |
| COc1cc(-c2cc(=O)c3c(O)cc(O)c(CC=C(C)C)c3o2)ccc1O [FBL-03G] | 5.46 µM | 36 nM | > 1000 nM | 24.1 µM | 5920 nM |
